Data published in US20250057828A1, “COMBINATION OF AN A2-ADRENOCEPTOR SUBTYPE C (ALPHA-2C) ANTAGONIST WITH A NOREPINEPHRINE REUPTAKE INHIBITOR FOR THE TREATMENT OF SLEEP APNEA” (priority 2021, published 2025).

System: pig model of obstructive sleep apnea (OSA)
Assay: pig model of obstructive sleep apnea (OSA): collapsibility of the upper respiratory tract under negative pressure
Format: in vivo, German Landrace pigs
Text: The therapeutic potential of the combination of an α2-Adrenoceptor subtype C (alpha-2C) antagonists with a muscarinic receptor antagonist according to the present invention in sleep apnea can be assessed preclinically in a pig model of obstructive sleep apnea (OSA).
Using negative pressure, it is possible to induce collapse and thus obstruction of the upper respiratory tract in anaesthetized, spontaneously breathing pigs (Wirth K. J. et al., Sleep 36(5) (2013) pp. 699-708).
German Landrace pigs are used for the model. The pigs are anaesthetized and tracheotomized. Two tracheal cannulas are inserted into the trachea, one into the rostral part and the other into the caudal part of the trachea. Using a connection piece, the rostral cannula is connected to a tube to the negative pressure device and to the distal tracheal cannula. The distal tracheal cannula is additionally connected to a tube with an open end to atmosphere via a connection piece that served for free tracheal breathing, circumventing the upper airway. By appropriate opening and clamping of those tubes breathing can be switched from nasal breathing to breathing through the caudal tracheal cannula, circumventing the upper airway, and the (isolated) upper airway can be connected to the negative pressure device, causing airflow in the inspiratory direction.
At certain points in time, the collapsibility of the upper respiratory tract is tested by having the pig breathe via the caudal cannula and applying negative pressures of −50, −100 and −150 cm water head (cm H2O) to the upper respiratory tract. This causes the upper respiratory tract to collapse, which manifests itself in an interruption of the airflow and a pressure drop in the tube system. This test is conducted prior to the administration of the test substance and at certain intervals after the administration of the test substance. An appropriately effective test substance can prevent this collapse of the respiratory tract in the inspiratory phase.

[1] = R-oxybutynin intravenous bolus 1 mg/kg + infusion 0.275 mg/kg/h for four hours, 0 min
[2] = R-oxybutynin intravenous bolus 1 mg/kg + infusion 0.275 mg/kg/h for four hours, 10 min
[3] = R-oxybutynin intravenous bolus 1 mg/kg + infusion 0.275 mg/kg/h for four hours, 30 min
[4] = R-oxybutynin intravenous bolus 1 mg/kg + infusion 0.275 mg/kg/h for four hours, 60 min
[5] = R-oxybutynin intravenous bolus 1 mg/kg + infusion 0.275 mg/kg/h for four hours, 120 min
[6] = R-oxybutynin intravenous bolus 1 mg/kg + infusion 0.275 mg/kg/h for four hours, 180 min
[7] = R-oxybutynin intravenous bolus 1 mg/kg + infusion 0.275 mg/kg/h for four hours, 240 min
[8] = intravenous bolus 1 mg/kg followed by infusion of 0,275 mg/kg/h for four hours
[9] = intravenous bolus 1 mg/kg + infusion 0.275 mg/kg/h for four hours, 0 min
[10] = intravenous bolus 1 mg/kg + infusion 0.275 mg/kg/h for four hours, 10 min
[11] = intravenous bolus 1 mg/kg + infusion 0.275 mg/kg/h for four hours, 30 min
[12] = intravenous bolus 1 mg/kg + infusion 0.275 mg/kg/h for four hours, 60 min
[13] = intravenous bolus 1 mg/kg + infusion 0.275 mg/kg/h for four hours, 120 min
[14] = intravenous bolus 1 mg/kg + infusion 0.275 mg/kg/h for four hours, 180 min
[15] = intravenous bolus 1 mg/kg + infusion 0.275 mg/kg/h for four hours, 240 min
[16] = 0.01 mg/kg intraduodenal, 0 min
[17] = 0.01 mg/kg intraduodenal, 30 min
[18] = 0.01 mg/kg intraduodenal, 60 min
[19] = 0.01 mg/kg intraduodenal, 90 min
[20] = 0.01 mg/kg intraduodenal, 120 min
[21] = 0.01 mg/kg intraduodenal, 150 min
[22] = 0.01 mg/kg intraduodenal, 180 min
[23] = 0.01 mg/kg intraduodenal, 240 min
[24] = 0.01 mg/kg intraduodenal, 270 min
[25] = 0.01 mg/kg intraduodenal, 300 min

## CCN(CC)CC#CCOC(=O)[C@](O)(c1ccccc1)C1CCCCC1 [R-oxybutynin, R-Oxybutynin]
R-Oxybutynin intravenous bolus 1 mg/kg + infusion 0,275 mg/kg/h, time point 60 min
  upper airway collapsibility at the negative pressure of −50 cm head (cm H2O): inhibited
[1]
  Percent pigs without collaps −50 cm H2O, %: 0%
  Percent pigs without collaps −100 cm H2O, %: 0%
  Percent pigs without collaps −150 cm H2O, %: 0%
[2]
  Percent pigs without collaps −50 cm H2O, %: 0%
  Percent pigs without collaps −100 cm H2O, %: 0%
  Percent pigs without collaps −150 cm H2O, %: 0%
[3]
  Percent pigs without collaps −50 cm H2O, %: 0%
  Percent pigs without collaps −100 cm H2O, %: 0%
  Percent pigs without collaps −150 cm H2O, %: 0%
[4]
  Percent pigs without collaps −50 cm H2O, %: 100%
  Percent pigs without collaps −100 cm H2O, %: 50%
  Percent pigs without collaps −150 cm H2O, %: 0%
[5]
  Percent pigs without collaps −50 cm H2O, %: 0%
  Percent pigs without collaps −100 cm H2O, %: 0%
  Percent pigs without collaps −150 cm H2O, %: 0%
[6]
  Percent pigs without collaps −50 cm H2O, %: 0%
  Percent pigs without collaps −100 cm H2O, %: 0%
  Percent pigs without collaps −150 cm H2O, %: 0%
[7]
  Percent pigs without collaps −50 cm H2O, %: 0%
  Percent pigs without collaps −100 cm H2O, %: 0%
  Percent pigs without collaps −150 cm H2O, %: 0%
[8]
  inhibited upper airway collapsibility at all negative pressures of −50, −100 and −150 cm head (cm H2O) in all pigs: at no time

## CCN(CC)CC#CCOC(=O)C(O)(c1ccccc1)C1CCCCC1 (stereo not drawn) [oxybutynin, Oxybutynin]
[9]
  Percent pigs without collaps −50 cm H2O, %: 0%
  Percent pigs without collaps −100 cm H2O, %: 0%
  Percent pigs without collaps −150 cm H2O, %: 0%
[10]
  Percent pigs without collaps −50 cm H2O, %: 0%
  Percent pigs without collaps −100 cm H2O, %: 0%
  Percent pigs without collaps −150 cm H2O, %: 0%
[11]
  Percent pigs without collaps −50 cm H2O, %: 0%
  Percent pigs without collaps −100 cm H2O, %: 0%
  Percent pigs without collaps −150 cm H2O, %: 0%
[12]
  Percent pigs without collaps −50 cm H2O, %: 0%
  Percent pigs without collaps −100 cm H2O, %: 0%
  Percent pigs without collaps −150 cm H2O, %: 0%
[13]
  Percent pigs without collaps −50 cm H2O, %: 0%
  Percent pigs without collaps −100 cm H2O, %: 0%
  Percent pigs without collaps −150 cm H2O, %: 0%
[14]
  Percent pigs without collaps −50 cm H2O, %: 0%
  Percent pigs without collaps −100 cm H2O, %: 0%
  Percent pigs without collaps −150 cm H2O, %: 0%
[15]
  Percent pigs without collaps −50 cm H2O, %: 0%
  Percent pigs without collaps −100 cm H2O, %: 0%
  Percent pigs without collaps −150 cm H2O, %: 0%
[8]
  inhibited upper airway collapsibility at all negative pressures of −50, −100 and −150 cm head (cm H2O) in all pigs: at no time

## C[C@@H]1CCCN(C2CCN(c3ncc(C(=O)NCc4ncc(F)cc4F)s3)CC2)C1 [N-[(3,5-difluoropyridin-2-yl)methyl]-2-[(3R)-3-methyl[1,4′-bipiperidin]-1′-yl]-1,3-thiazole-5-carboxamide]
0.01 mg/kg intraduodenal
  inhibited upper airway collapsibility at all negative pressures of −50, −100 and −150 cm head (cm H2O) in all pigs: at no time point
0.01 mg/kg intraduodenal, time point 120 min
  upper airway collapsibility at the negative pressures of −50 and −100 cm head (cm H2O): inhibited
0.01 mg/kg intraduodenal, time point 150 min
  upper airway collapsibility at the negative pressure of −50 cm head (cm H2O): inhibited
[16]
  Percent pigs without collaps −50 cm H2O, %: 0%
  Percent pigs without collaps −100 cm H2O, %: 0%
  Percent pigs without collaps −150 cm H2O, %: 0%
[17]
  Percent pigs without collaps −50 cm H2O, %: 0%
  Percent pigs without collaps −100 cm H2O, %: 0%
  Percent pigs without collaps −150 cm H2O, %: 0%
[18]
  Percent pigs without collaps −50 cm H2O, %: 25%
  Percent pigs without collaps −100 cm H2O, %: 0%
  Percent pigs without collaps −150 cm H2O, %: 0%
[19]
  Percent pigs without collaps −50 cm H2O, %: 75%
  Percent pigs without collaps −100 cm H2O, %: 75%
  Percent pigs without collaps −150 cm H2O, %: 0%
[20]
  Percent pigs without collaps −50 cm H2O, %: 100%
  Percent pigs without collaps −100 cm H2O, %: 100%
  Percent pigs without collaps −150 cm H2O, %: 50%
[21]
  Percent pigs without collaps −50 cm H2O, %: 100%
  Percent pigs without collaps −100 cm H2O, %: 75%
  Percent pigs without collaps −150 cm H2O, %: 25%
[22]
  Percent pigs without collaps −50 cm H2O, %: 75%
  Percent pigs without collaps −100 cm H2O, %: 50%
  Percent pigs without collaps −150 cm H2O, %: 0%
[23]
  Percent pigs without collaps −50 cm H2O, %: 50%
  Percent pigs without collaps −100 cm H2O, %: 25%
  Percent pigs without collaps −150 cm H2O, %: 0%
[24]
  Percent pigs without collaps −50 cm H2O, %: 25%
  Percent pigs without collaps −100 cm H2O, %: 25%
  Percent pigs without collaps −150 cm H2O, %: 0%
[25]
  Percent pigs without collaps −50 cm H2O, %: 25%
  Percent pigs without collaps −100 cm H2O, %: 0%
  Percent pigs without collaps −150 cm H2O, %: 0%
